pIC50: −log10 of the molar value. *1 amine or outer side, *2 acyl side, *3 side chain or, on linkers, in order; H or OH if unused. Where a SMILES comes first, the peptide text is derived from it. Bridges are numbered along the chain shown (N, C = ends). [ ]: non-standard residue; d: D form. The star is where a group is joined. X5 = O=C([C@H](Cc1ccc(-c2cc(F)c(F)c(F)c2)cc1)N[*:1])[*:2]; Phe(4-(4-F-Ph)) = N[C@@H](Cc1ccc(-c2ccc(F)cc2)cc1)C(=O)O; X13 = O=C([C@H](Cc1ccc(-c2cc(F)cc(F)c2)cc1)N[*:1])[*:2]; Phe(3-CF3) = N[C@@H](Cc1cccc(C(F)(F)F)c1)C(=O)O; Phe(4-COOH) = N[C@@H](Cc1ccc(C(=O)O)cc1)C(=O)O; Bip = N[C@@H](Cc1ccc(-c2ccccc2)cc1)C(=O)O; Phe(3-CN) = N#Cc1cccc(C[C@H](N)C(=O)O)c1; Phe(3-Me) = Cc1cccc(C[C@H](N)C(=O)O)c1; Cha = N[C@@H](CC1CCCCC1)C(=O)O; Carboxymethyl = O=C(O)C*; NMeA = CN[C@@H](C)C(=O)O; Aun = NCCCCCCCCCCC(=O)O; Dab = NCC[C@H](N)C(=O)O
Each compound was assayed against T1, PD-1/PD-L1 interaction (PE-labeled human PD-L1-Ig binding to Jurkat cell line over-expressing human PD-1) (Homo sapiens, UniProt Q15116) (assay: Jurkat-PD-1 Cell Binding High-Content Screening Assay (CBA)). Conditions: Jurkat-hPD-1 cells, PE-labeled PD-L1-Ig 20 nM final; read-out: Jurkat HPD1 PDL1 IC50.
T1 construct: expressed in transfected cells; host or cells: Jurkat
T1 sequence (Q15116 25-288): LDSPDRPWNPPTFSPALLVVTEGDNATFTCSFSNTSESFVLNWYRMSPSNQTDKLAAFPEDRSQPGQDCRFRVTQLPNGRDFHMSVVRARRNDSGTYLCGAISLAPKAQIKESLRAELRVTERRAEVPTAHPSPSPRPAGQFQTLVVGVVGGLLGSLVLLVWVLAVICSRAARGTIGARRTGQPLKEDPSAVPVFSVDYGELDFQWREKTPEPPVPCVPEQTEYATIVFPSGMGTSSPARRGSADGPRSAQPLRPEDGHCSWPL
Procedure, shortened: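 Binding of 20 nM (final) PE-tagged PD-L1-Ig to compound-pretreated Jurkat-hPD-1 cells was measured by high-content imaging after 1 h. Pretreatment ran 2 h at 37 °C in DMEM with 10% fetal calf serum.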
`CC(C)C[C@H]1NC(=O)[C@H](C)N(C)C(=O)[C@H](Cc2ccc(OCC(=O)O)cc2)NC(=O)[C@H](Cc2ccc(-c3ccccc3)cc2)NC(=O)[C@H](Cc2ccc(C(=O)O)cc2)NC(=O)[C@H](Cc2cccc(C#N)c2)NC(=O)[C@H](CC(=O)O)NC(=O)[C@H](Cc2ccc(OCC(=O)O)cc2)NC(=O)[C@H]([C@@H](C)O)NC(=O)CSC[C@@H](C(=O)N[C@@H](CCN)C(=O)NCCCCCCCCCCC(=O)O)NC(=O)[C@H]([C@@H](C)O)NC(=O)[C@H](C(C)C)NC(=O)[C@H](CC2CCCCC2)NC(=O)[C@H](CCN)NC1=O` [Example 1233] ({CH2CO}-TY(Carboxymethyl)D[Phe(3-CN)][Phe(4-COOH)][Bip]Y(Carboxymethyl)[NMeA][dL][Dab][Cha]VTC[Dab][Aun]-OH; thioether N-14) gave a pIC50 of 7.18.
Compound `Cc1cccc(C[C@@H]2NC(=O)[C@H](CC(=O)O)NC(=O)[C@H](Cc3ccc(OCC(=O)O)cc3)NC(=O)[C@H]([C@@H](C)O)NC(=O)CSC[C@@H](C(=O)N[C@@H](CCN)C(=O)NCCCCCCCCCCC(=O)O)NC(=O)[C@H]([C@@H](C)O)NC(=O)[C@H](C(C)C)NC(=O)[C@H](CC3CCCCC3)NC(=O)[C@H](CCN)NC(=O)[C@@H](CC(C)C)NC(=O)[C@H](C)N(C)C(=O)[C@H](Cc3ccc(OCC(=O)O)cc3)NC(=O)[C@H](Cc3ccc(-c4cc(F)cc(F)c4)cc3)NC(=O)[C@H](Cc3ccc(C(=O)O)cc3)NC2=O)c1` [Example 1234] ({CH2CO}-TY(Carboxymethyl)D[Phe(3-Me)][Phe(4-COOH)][X13]Y(Carboxymethyl)[NMeA][dL][Dab][Cha]VTC[Dab][Aun]-OH; thioether N-14) has a pIC50 of 7.50.
`Cc1cccc(C[C@@H]2NC(=O)[C@H](CC(=O)O)NC(=O)[C@H](Cc3ccc(OCC(=O)O)cc3)NC(=O)[C@H]([C@@H](C)O)NC(=O)CSC[C@@H](C(=O)N[C@@H](CCN)C(=O)NCCCCCCCCCCC(=O)O)NC(=O)[C@H]([C@@H](C)O)NC(=O)[C@H](C(C)C)NC(=O)[C@H](CC3CCCCC3)NC(=O)[C@H](CCN)NC(=O)[C@@H](CC(C)C)NC(=O)[C@H](C)N(C)C(=O)[C@H](Cc3ccc(OCC(=O)O)cc3)NC(=O)[C@H](Cc3ccc(-c4ccc(F)cc4)cc3)NC(=O)[C@H](Cc3ccc(C(=O)O)cc3)NC2=O)c1` [Example 1235] ({CH2CO}-TY(Carboxymethyl)D[Phe(3-Me)][Phe(4-COOH)][Phe(4-(4-F-Ph))]Y(Carboxymethyl)[NMeA][dL][Dab][Cha]VTC[Dab][Aun]-OH; thioether N-14) was tested, and the pIC50 was 8.02.
`Cc1cccc(C[C@@H]2NC(=O)[C@H](CC(=O)O)NC(=O)[C@H](Cc3ccc(OCC(=O)O)cc3)NC(=O)[C@H]([C@@H](C)O)NC(=O)CSC[C@@H](C(=O)N[C@@H](CCN)C(=O)NCCCCCCCCCCC(=O)O)NC(=O)[C@H]([C@@H](C)O)NC(=O)[C@H](C(C)C)NC(=O)[C@H](CC3CCCCC3)NC(=O)[C@H](CCN)NC(=O)[C@@H](CC(C)C)NC(=O)[C@H](C)N(C)C(=O)[C@H](Cc3ccc(OCC(=O)O)cc3)NC(=O)[C@H](Cc3ccc(-c4cc(F)c(F)c(F)c4)cc3)NC(=O)[C@H](Cc3ccc(C(=O)O)cc3)NC2=O)c1` [Example 1236] ({CH2CO}-TY(Carboxymethyl)D[Phe(3-Me)][Phe(4-COOH)][X5]Y(Carboxymethyl)[NMeA][dL][Dab][Cha]VTC[Dab][Aun]-OH; thioether N-14) was tested, and the pIC50 was 7.26.
`CC(C)C[C@H]1NC(=O)[C@H](C)N(C)C(=O)[C@H](Cc2ccc(OCC(=O)O)cc2)NC(=O)[C@H](Cc2ccc(-c3cc(F)c(F)c(F)c3)cc2)NC(=O)[C@H](Cc2ccc(C(=O)O)cc2)NC(=O)[C@H](Cc2cccc(C(F)(F)F)c2)NC(=O)[C@H](CC(=O)O)NC(=O)[C@H](Cc2ccc(OCC(=O)O)cc2)NC(=O)[C@H]([C@@H](C)O)NC(=O)CSC[C@@H](C(=O)N[C@@H](CCN)C(=O)NCCCCCCCCCCC(=O)O)NC(=O)[C@H]([C@@H](C)O)NC(=O)[C@H](C(C)C)NC(=O)[C@H](CC2CCCCC2)NC(=O)[C@H](CCN)NC1=O` [Example 1237] ({CH2CO}-TY(Carboxymethyl)D[Phe(3-CF3)][Phe(4-COOH)][X5]Y(Carboxymethyl)[NMeA][dL][Dab][Cha]VTC[Dab][Aun]-OH; thioether N-14) was tested, and the pIC50 was 6.74.
